Experimental data: patent US20100152298A1, “Present invention relates to a treatment for the management of cancer more specially the use of Flutamide anti-androgen drugsa” (UNIVERSITY OF KUWAIT, priority 2008, published 2010)

Tested on: androgen-independent prostate cancer PC-3 cells
Experiment: Growth, proliferation and viability of PC-3 cells treated with flutamide
Type: cell-based
Details: range of doses of flutamide

`CC(C)C(=O)Nc1ccc([N+](=O)[O-])c(C(F)(F)F)c1` [flutamide, Flutamide] was tested, and the inhibiting growth was 20-70%.
